Data from US4528299A, “1-(2,3-Dimethyl-4-methoxyphenyl)-2-methyl-3-(1-pyrrolidinyl)-1-propanone and anti-spastic use thereof” (priority 1982, dated 1985).

Key:
[1] = Acute toxicity; assay type: in vivo; conditions: mouse, in vivo, ip, mice; for LD50 at 168 h: 7 days observation; for selectivity ratio: (LD50)/(ED50 of Muscle relaxant effect), i.p., read-out: Safety index
Description: (§1) Male mice of STD-ddY strain, weighing 23 to 25 g, were used in groups of 10 animals. The test compounds, suspended or dissolved in 0.5% tragacanth solution, were intraperitoneally administered at a volume of 0.1 ml/10 g body weight. After the administration, the mice were kept for 7 days, and observed for death. The median lethal dose (LD50), the dose which caused death in 50% of animals, were calculated according to the method of Litchfield and Wilcoxon.

[2] = tested on: anemic decerebrate rigidity (α-rigidity); assay: Effect on anemic decerebrate rigidity (α-rigidity), EMG activity of M. triceps brachii, cumulative i.v. injection; assay type: in vivo, Male rats of Wistar strain; conditions: for ED50: Rattus norvegicus, iv, 5 min, cumulative 1.25-20 mg/kg, dose reducing EMG activity to 50%; for ED50 / α-Rigidity reducing effect Duration: rats; for α-Rigidity reducing effect Duration: time from disappearance to reappearance of EMG activities after total dose of 20 mg/kg, i.v.
Description: Anemic decerebrate rigidity is known to be a model showing the abnormal hypertonia. This model was prepared according to the method of Fukuda et al [cf. Japan. J. Pharmacol. 24, 810-813 (1974)]. Male rats of Wistar strain, weighing 250 to 350 g, were used in groups of 5 animals. Under the ether anesthesia, the animal was fixed on its back. After the oesophagus and bilateral common carotid arteries were exposed, the trachea was cannulated and the oesophagus was cut between two placed ligatures. The occipital bone was exposed. The common carotid arteries were ligated bilaterally and a trephined opening was made in the central part of the bone. The dura matter was cut along the basilar artery, and the artery was cauterized with a coagulator of bipolar pincette electrodes (Micro-ID made by Mizuhoika Kogyo Co., Ltd., Japan). After the operation, anesthesia was discontinued. The marked rigidity occurred in the forelimbs within 15 minutes after the operation.
The rat was placed on its back and the hindlimbs fixed. Electromyogram (EMG) was recorded by a coaxial needle electrode inserted into the Musculus triceps brachii of the forelimbs. Reference electrode was inserted into the hindlimb muscle. EMG activities obtained from the muscle were amplified, transformed into the square wave pulses with the window discriminator, and fed into integrator, the out-put of which was amplified and recorded by an inkwriting recorder.
The test compounds were dissolved in distilled water. After the EMG activities had remained stable over 15 to 30 minutes, the test compounds were cumulatively injected at a 5-minute interval into a cannulated femoral vein. The doses administered were 1.25 mg/kg, 2.5 mg/kg, 5.0 mg/kg, 10 mg/kg and finally 20 mg/kg. The EMG activities were expressed as a percentage of the pre-injection value, and the maximal effect within 5 minutes was measured in each dose. The median effective dose (ED50), the dose which reduced the EMG activity to 50%, was calculated by the method of Litchfield and Wilcoxon. In addition, the time from disappearance to reappearance of EMG activities after total dose of 20 mg/kg was expressed as the duration of the effect.

[3] = tested on: muscle relaxation; assay: Muscle relaxant effect (Traction test); assay type: in vivo, Male mice of STD-ddY strain; conditions: for ED50: Mus musculus, ip, 0.25 h, i.p., mice, 15 minutes after administration
Description: Traction test was used as an index of the muscle relaxation. Male mice of STD-ddY strain, weighing 20 to 25 g, were used in groups of 5 animals. The test compounds, suspended or dissolved in 0.5% tragacanth solution, were intraperitoneally administered at a volume of 0.1 ml/10 g body weight, and 15 minutes after the administration the muscle relaxant effects were examined according to the method of Courvoisier et al (cf. "Psychotropic Drugs", ed. by Garattini, S. and Ghetti, V., Elsevier Pub. Co., Amsterdam, 1957, page 373). The animal was suspended by their forelimbs on a horizontal metal bar with a diameter of 2 mm. The rod was 18 cm above the floor. The animals which could not put their hindlimb on the rod within 5 seconds were judged as a positive (all-or-nothing way). The median effective dose (ED50), the dose which caused the positive effects in 50% of animals, were calculated according to the method of Litchfield and Wilcoxon.

[4] = tested on: mice; assay: Acute toxicity; assay type: in vivo
Description: as §1

[5] = tested on: anemic decerebrate rigidity (α-rigidity); assay: Effect on anemic decerebrate rigidity (α-rigidity), EMG activity of M. triceps brachii, cumulative i.v. injection; assay type: in vivo, Male rats of Wistar strain

With `COc1ccc(C(=O)CCN2CCCC2)c(C)c1C` [Compound 7] the LD50 at 168 h [1] was 174 mg/kg, the selectivity ratio [1] was 2 and the ED50 [2] was 17.2 mg/kg. For the same compound, the ED50 [3] was 87.1 mg/kg.
With `COc1ccc(C(=O)C(C)CN2CCCC2)c(C)c1C` (stereo not drawn) [A, 1-(2,3-dimethyl-4-methoxyphenyl)-2-methyl-3-(1-pyrrolidinyl)-1-propanone] the LD50 at 168 h [1] was 161 mg/kg, the selectivity ratio [1] was 2.35 and the “safety index relative to Compound No. 1” value ([4]; vs Compound No. 1) was “about 1.8 times”. For the same compound, the “safety index relative to Compound No. 3” value ([4]; vs Compound No. 3) was “about 1.5 times”, the “safety index relative to Compound No. 6” value ([4]; vs Compound No. 6, in words) was “higher safety index” and the “safety index relative to Compound No. 8” value ([4]; vs Compound No. 8, in words) was “higher safety index”. The ED50 [2] was 2.6 mg/kg, the “α-Rigidity reducing effect Duration” value [2] was 16.3 min and the “duration of action relative to Compound No. 1” value ([2]; vs Compound No. 1) was “about 23 times”. The “potency in the reducing activity of α-rigidity relative to Compound No. 1” value ([2]; vs Compound No. 1) was “about 4.7 times”, the “duration of action relative to Compound No. 2” value ([2]; vs Compound No. 2) was “about 5.8 times” and the “potency in the reducing activity of α-rigidity relative to Compound No. 2” value ([2]; vs Compound No. 2) was “about 4.9 times”. For the same compound, the “potency in α-rigidity reducing activity relative to Compound No. 3” value ([2]; vs Compound No. 3) was “about 7.8 times”, the “potency in α-rigidity reducing activity relative to Compound No. 4” value ([2]; vs Compound No. 4) was “about 2.7 times” and the “duration of action relative to Compound No. 5” value ([2]; vs Compound No. 5) was “about 1.9 times”. The “potency in the reducing activity of α-rigidity relative to Compound No. 5” value ([2]; vs Compound No. 5) was “about 6 times”, the “potency in the reducing activity of α-rigidity relative to Compound No. 6” value ([2]; vs Compound No. 6) was “about 2.8 times” and the “duration of action relative to Compound No. 6” value ([2]; vs Compound No. 6, in words) was “somewhat longer”. The “potency in the reducing activity of α-rigidity relative to Compound No. 7” value ([2]; vs Compound No. 7) was “about 6.6 times”, the “potency in the reducing activity of α-rigidity relative to Compound No. 8” value ([2]; vs Compound No. 8) was “about 3.7 times” and the “pharmacological activities relative to known analogous compound Nos. 1 to 5” value ([2]; vs compound Nos. 1 to 5, overall conclusion from Tests 1-3) was “far greater”. For the same compound, the “pharmacological activities relative to novel analogous compound Nos. 6 to 8” value ([2]; vs compound Nos. 6 to 8, overall conclusion from Tests 1-3) was “fairly or far greater”, the ED50 [3] was 68.5 mg/kg and the “potency in muscle relaxant activity relative to Compound No. 1” value ([3]; vs Compound No. 1) was “about 2.3 times”. For the same compound, the “potency in muscle relaxant activity relative to Compound No. 3” value ([3]; vs Compound No. 3) was about 2.3 times and the “potency in muscle relaxant activity relative to Compound No. 4” value ([3]; vs Compound No. 4) was about 1.8 times.
For `COc1ccc(C(=O)C(C)CN2CCCC2)c(C)c1C` (stereo not drawn) [compound (I), 1-(2,3-dimethyl-4-methoxyphenyl)-2-methyl-3-(1-pyrrolidinyl)-1-propanone], the toxicity ([4]; overall conclusion, in words) was “low toxicity” and the “central muscle relaxant activities in comparison with the known compounds” value ([3]; overall conclusion, in words) was “highly improved, excellent”.
In the case of `COc1ccc(C(=O)C(C)CN2CCCCC2)c(C)c1C` (stereo not drawn) [Compound 6], the LD50 at 168 h [1] is reported as 145 mg/kg, the selectivity ratio [1] is reported as 1.87 and the ED50 [2] is reported as 7.3 mg/kg. For the same compound, the “α-Rigidity reducing effect Duration” value [2] was 11.4 min and the ED50 [3] was 77.7 mg/kg.
With `Cc1ccc(C(=O)C(C)CN2CCCCC2)cc1` (stereo not drawn) [Compound 1, 2-methyl-1-p-methylphenyl-3-piperidino-1-propanone] the LD50 at 168 h [1] was 210 mg/kg, the selectivity ratio [1] was 1.34 and the ED50 [2] was 12.3 mg/kg. For the same compound, the “α-Rigidity reducing effect Duration” value [2] was 0.7 min and the ED50 [3] was 156 mg/kg.
With `CCOc1ccc(C(=O)C(C)CN2CCCC2)c(C)c1C` (stereo not drawn) [Compound 8] the LD50 at 168 h [1] was 134 mg/kg, the selectivity ratio [1] was 1.78 and the ED50 [2] was 9.6 mg/kg. The “α-Rigidity reducing effect Duration” value [2] was 14.8 min and the ED50 [3] was 75.5 mg/kg.
`COc1ccc(C(=O)C(C)CN2CCCCC2)cc1OC` (stereo not drawn) [Compound 3] gave an LD50 at 168 h [1] of 247 mg/kg, a selectivity ratio [1] of 1.56 and an ED50 [2] of 20.2 mg/kg. The ED50 [3] was 158 mg/kg.
Compound `Cc1ccc(C(=O)C(C)CN2CCCCC2)cc1C` (stereo not drawn) [Compound 5] has an LD50 at 168 h [1] of 140 mg/kg, a selectivity ratio [1] of 2.36 and an ED50 [2] of 15.6 mg/kg. For the same compound, the “α-Rigidity reducing effect Duration” value [2] was 8.8 min and the ED50 [3] was 59.3 mg/kg.
For `CCc1ccc(C(=O)C(C)CN2CCCCC2)cc1` (stereo not drawn) [Compound 2], the LD50 at 168 h [1] was 129 mg/kg, the selectivity ratio [1] was 2.01 and the ED50 [2] was 12.7 mg/kg. The “α-Rigidity reducing effect Duration” value [2] was 2.8 min and the ED50 [3] was 64.2 mg/kg.
In the case of `Cc1cc(C)c(C(=O)C(C)CN2CCCCC2)c(C)c1` (stereo not drawn) [Compound 4], the LD50 at 168 h [1] is reported as 156 mg/kg, the selectivity ratio [1] is reported as 1.27 and the ED50 [2] is reported as 6.9 mg/kg. The ED50 [3] was 123 mg/kg and the toxicity in rats [5] was “high toxicity in rats”.
